In patent publication US20240317744A1, “Bicyclic Ureas As Kinase Inhibitors” (Incyte Corporation, priority 2023, published 2024):

Key:
[1] = target: T1, pseudo-kinase domain (JH2, amino-acids 536-812) of human Wild Type JAK2 (Homo sapiens, UniProt O60674, F794H/W659A/W777A); assay: JAK2 LanthaScreen JH2-WT Binding Assay; conditions: JAK2 JH2-WT 0.145 nM, 50 nM tracer, 1 hour at 25° C.; read-out: JH2 BIND WT
T1 construct: pseudo-kinase domain (JH2, amino-acids 536-812 with 3 surface mutations W659A, W777A, F794H); His (C); purchased BPS Bioscience 79463; host or cells: baculovirus expression system
T1 sequence (O60674 536-812 W659A/W777A/F794H): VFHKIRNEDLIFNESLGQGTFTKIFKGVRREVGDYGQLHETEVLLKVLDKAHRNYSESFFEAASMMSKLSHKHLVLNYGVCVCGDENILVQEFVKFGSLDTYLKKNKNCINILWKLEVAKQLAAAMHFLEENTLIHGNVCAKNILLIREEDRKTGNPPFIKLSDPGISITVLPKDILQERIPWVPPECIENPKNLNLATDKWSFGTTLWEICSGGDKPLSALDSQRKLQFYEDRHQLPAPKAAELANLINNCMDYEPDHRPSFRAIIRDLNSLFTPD
In short: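 Biotinylated C-terminal His-Avi-tagged JH2 (residues 536-812, baculovirus-expressed) at 0.145 nM was incubated with serially diluted compounds, 50 nM fluorescent JAK2-JH2 tracer and 0.25 nM streptavidin-Tb cryptate in pH 7.5 Tris buffer with MgCl2, Brij-35, BSA, EGTA, glycerol and DTT. LanthaScreen TR-FRET was read after 1 hour at 25° C; IC50 came from four-parameter fits.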

[2] = target: catalytic domain (JH1, amino acids 808-1132) of human JAK2 (Homo sapiens, UniProt O60674); assay: JAK2 HTRF Enzyme Activity Assay; assay type: biochemical; conditions: ATP 30 µM, 60 minutes at 25° C.; read-out: V617F ENZ 30 UM
catalytic domain (JH1, amino acids 808-1132) of human JAK2, sequence (O60674 808-1132 limits assumed): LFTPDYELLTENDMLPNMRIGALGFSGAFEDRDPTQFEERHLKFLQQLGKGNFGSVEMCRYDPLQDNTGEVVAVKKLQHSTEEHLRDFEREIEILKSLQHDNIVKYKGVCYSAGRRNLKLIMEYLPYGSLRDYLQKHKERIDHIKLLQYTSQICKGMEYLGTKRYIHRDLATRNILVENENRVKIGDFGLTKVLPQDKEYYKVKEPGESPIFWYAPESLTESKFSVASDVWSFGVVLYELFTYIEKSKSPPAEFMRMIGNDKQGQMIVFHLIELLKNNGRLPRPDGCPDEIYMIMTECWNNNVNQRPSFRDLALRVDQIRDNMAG

[3] = target: T2, pseudo-kinase domain (JH2, amino-acids 536-812) of human V617F mutant JAK2 (Homo sapiens, UniProt O60674, F794H/V617F/W659A/W777A); assay: JAK2 LanthaScreen JH2-V617F Binding Assay; conditions: JAK2 JH2-V617F 0.26 nM, 50 nM tracer, 1 hour at 25° C.; read-out: JH2 BIND V617F
T2 construct: pseudo-kinase domain (JH2, amino-acids 536-812 with 3 surface mutations W659A, W777A, F794H); His (C); purchased BPS Bioscience 79498; host or cells: baculovirus expression system
T2 sequence (O60674 536-812 V617F/W659A/W777A/F794H): as the sequence (O60674 536-812 W659A/W777A/F794H) above, with V82F counted along it
In short: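 IC50 values came from four-parameter dose-response fits of LanthaScreen signal, read after compounds sat 1 hour at 25° C with 0.26 nM baculovirus-expressed biotinylated protein, 50 nM fluorescent tracer and 0.25 nM streptavidin-Tb cryptate. Non-specific binding was set with 2 mM ATP.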

[4] = target: T3, catalytic domain (JH1, amino acids 826-1132) of human JAK2 (Homo sapiens, UniProt O60674); assay: JAK2 LanthaScreen JH1 Binding Assay; conditions: JAK2 JH1 1.5 nM, 50 nM tracer, 2 hours at 25° C.; read-out: JH1 BIND
T3 construct: catalytic domain (JH1, amino acids 826-1132) of human JAK2; FLAG (N); biotin (biotinylated); purchased Carna Biosciences 08-445-20N; host or cells: baculovirus expression system
T3 sequence (O60674 826-1132): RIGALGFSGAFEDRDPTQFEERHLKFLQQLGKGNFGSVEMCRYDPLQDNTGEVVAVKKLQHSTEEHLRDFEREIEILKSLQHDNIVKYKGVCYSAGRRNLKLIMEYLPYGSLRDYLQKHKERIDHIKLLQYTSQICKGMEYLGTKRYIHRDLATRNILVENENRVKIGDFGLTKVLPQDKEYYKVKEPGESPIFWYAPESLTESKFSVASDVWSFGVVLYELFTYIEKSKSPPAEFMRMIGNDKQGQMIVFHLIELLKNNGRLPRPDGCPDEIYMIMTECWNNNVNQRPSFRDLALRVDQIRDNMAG
In short: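 FLAG-tagged, biotinylated JAK2 JH1 (aa 826-1132, baculovirus-expressed; 1.5 nM) incubated 2 h at 25° C with compounds, 50 nM fluorescent tracer and 0.5 nM Streptavidin-Tb in Tris pH 7.5 buffer with MgCl2, Brij-35, BSA, EGTA, glycerol, DTT. Nonspecific binding defined with 2 mM ATP; TR-FRET IC50 from four-parameter fit.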

Q: Which IC50 [1] does the source give for COC(=O)Nc1cc(Nc2cc3c(cn2)n(C)c(=O)n3[C@H]2C[C@H](NC(=O)C3CC3)C2)cc(-c2cnn(C)c2)c1 [Example 24, Methyl (3-((1-((1r,3r)-3-(cyclopropanecarboxamido)cyclobutyl)-3-methyl-2-oxo-2,3-dihydro-1H-imidazo[4,5-c]pyridin-6-yl)amino)-5-(1-methyl-1H-pyrazol-4-yl)phenyl)carbamate] here?
A: 10 to 100 nM

Q: What about the IC50 [2] of the same compound?
A: > 1000 nM

Q: And the IC50 [3]?
A: 10 to 100 nM

Q: And the IC50 [4]?
A: > 1000 nM

Q: For CCOC(=O)NC1CC2(C1)CC(n1c(=O)n(C)c3cnc(Nc4cc(NC(=O)OC)cc(-c5cnn(C)c5)c4)cc31)C2 (centres unmarked) [Example 25, Methyl (3-((1-(6-((ethoxycarbonyl)amino)spiro[3.3]heptan-2-yl)-3-methyl-2-oxo-2,3-dihydro-1H-imidazo[4,5-c]pyridin-6-yl)amino)-5-(1-methyl-1H-pyrazol-4-yl)phenyl)carbamate], which IC50 [1] is on record?
A: 10 to 100 nM

Q: What about the IC50 [2] of the same compound?
A: > 1000 nM

Q: And the IC50 [3]?
A: 100 to 500 nM

Q: And the IC50 [4]?
A: > 1000 nM

Q: With COC(=O)Nc1cc(Nc2cc3c(cn2)n(C)c(=O)n3C2CC3(CC(NS(=O)(=O)C4CC4)C3)C2)cc(-c2cnn(C)c2)c1 (centres unmarked) [Example 26, Methyl (3-((1-(6-(cyclopropanesulfonamido)spiro[3.3]heptan-2-yl)-3-methyl-2-oxo-2,3-dihydro-1H-imidazo[4,5-c]pyridin-6-yl)amino)-5-(1-methyl-1H-pyrazol-4-yl)phenyl)carbamate] as the compound, how does the IC50 [1] read?
A: 10 to 100 nM

Q: And the IC50 [2]?
A: > 1000 nM

Q: And the IC50 [3]?
A: 10 to 100 nM

Q: What about the IC50 [4] of the same compound?
A: > 1000 nM

Q: Which results are given for COC(=O)Nc1cc(Nc2cc3c(cn2)n(C)c(=O)n3C2CC3(C2)CN(C(=O)OC)C3)cc(-c2cnn(C)c2)c1 [Example 27, Methyl 6-(6-((3-((methoxycarbonyl)amino)-5-(1-methyl-1H-pyrazol-4-yl)phenyl)amino)-3-methyl-2-oxo-2,3-dihydro-1H-imidazo[4,5-c]pyridin-1-yl)-2-azaspiro[3.3]heptane-2-carboxylate]?
A: IC50 [1]: 100 to 500 nM; IC50 [2]: > 1000 nM; IC50 [3]: 100 to 500 nM; IC50 [4]: > 1000 nM

Q: For COC(=O)Nc1cc(Nc2cc3c(cn2)n(C)c(=O)n3[C@H]2C[C@H](C#N)C2)cc(-c2cnn(C)c2)c1 [Example 28, Methyl (3-((1-((1r,3r)-3-cyanocyclobutyl)-3-methyl-2-oxo-2,3-dihydro-1H-imidazo[4,5-c]pyridin-6-yl)amino)-5-(1-methyl-1H-pyrazol-4-yl)phenyl)carbamate], which IC50 [1] is on record?
A: 10 to 100 nM

Q: And the IC50 [2]?
A: > 1000 nM

Q: What about the IC50 [3] of the same compound?
A: 100 to 500 nM

Q: What about the IC50 [4] of the same compound?
A: > 1000 nM

Q: What does the source list for COC(=O)Nc1cc(Nc2cc3c(cn2)n(C)c(=O)n3[C@H]2C[C@](C)(NC(=O)OC)C2)cc(-c2cnn(C)c2)c1 [Example 29, Methyl (3-((1-((1r,3r)-3-((methoxycarbonyl)amino)-3-methylcyclobutyl)-3-methyl-2-oxo-2,3-dihydro-1H-imidazo[4,5-c]pyridin-6-yl)amino)-5-(1-methyl-1H-pyrazol-4-yl)phenyl)carbamate]?
A: IC50 [1]: 100 to 500 nM; IC50 [2]: > 1000 nM; IC50 [3]: 100 to 500 nM; IC50 [4]: > 1000 nM

Q: What does the source list for COC(=O)Nc1cc(Nc2cc3c(cn2)n(C)c(=O)n3[C@@H]2CCC(F)(F)C2)cc(-c2cnn(C)c2)c1 [Example 30, Methyl (R)-(3-((1-(3,3-difluorocyclopentyl)-3-methyl-2-oxo-2,3-dihydro-1H-imidazo[4,5-c]pyridin-6-yl)amino)-5-(1-methyl-1H-pyrazol-4-yl)phenyl)carbamate]?
A: IC50 [1]: 10 to 100 nM; IC50 [2]: > 1000 nM; IC50 [3]: 100 to 500 nM; IC50 [4]: > 1000 nM

Q: For COC(=O)Nc1cc(Nc2cc3c(cn2)n(C)c(=O)n3[C@@H]2CC[C@H](F)C2)cc(-c2cnn(C)c2)c1 [Example 31, Methyl (3-((1-((1R,3S)-3-fluorocyclopentyl)-3-methyl-2-oxo-2,3-dihydro-1H-imidazo[4,5-c]pyridin-6-yl)amino)-5-(1-methyl-1H-pyrazol-4-yl)phenyl)carbamate], which IC50 [1] is on record?
A: 10 to 100 nM

Q: And the IC50 [2]?
A: > 1000 nM

Q: What about the IC50 [3] of the same compound?
A: 10 to 100 nM

Q: And the IC50 [4]?
A: > 1000 nM

Q: What does the source list for COC(=O)N[C@@H]1CC[C@@H](n2c(=O)n(C)c3cnc(Nc4ccc5cc(-c6cnn(C)c6)ccc5n4)cc32)C1 [Example 32, Methyl ((1R,3R)-3-(3-methyl-6-((6-(1-methyl-1H-pyrazol-4-yl)quinolin-2-yl)amino)-2-oxo-2,3-dihydro-1H-imidazo[4,5-c]pyridin-1-yl)cyclopentyl)carbamate]?
A: IC50 [1]: 100 to 500 nM; IC50 [2]: > 1000 nM; IC50 [3]: 100 to 500 nM; IC50 [4]: > 1000 nM

Q: With COC(=O)N[C@@H]1CC[C@@H](n2c(=O)n(C)c3cnc(Nc4ccc5cccc(-c6cnn(C)c6)c5n4)cc32)C1 [Example 33, Methyl ((1R,3R)-3-(3-methyl-6-((8-(1-methyl-1H-pyrazol-4-yl)quinolin-2-yl)amino)-2-oxo-2,3-dihydro-1H-imidazo[4,5-c]pyridin-1-yl)cyclopentyl)carbamate] as the compound, how does the IC50 [1] read?
A: 10 to 100 nM

Q: What about the IC50 [2] of the same compound?
A: > 1000 nM

Q: And the IC50 [3]?
A: 10 to 100 nM

Q: And the IC50 [4]?
A: > 1000 nM

Q: COC(=O)N[C@@H]1CC[C@@H](n2c(=O)n(C)c3cnc(Nc4ccc5ncc(-c6cnn(C)c6)n5n4)cc32)C1 [Example 34, Methyl ((1R,3R)-3-(3-methyl-6-((3-(1-methyl-1H-pyrazol-4-yl)imidazo[1,2-b]pyridazin-6-yl)amino)-2-oxo-2,3-dihydro-1H-imidazo[4,5-c]pyridin-1-yl)cyclopentyl)carbamate] was tested. Which IC50 [1] did it give?
A: ≤ 10 nM

Q: And the IC50 [2]?
A: > 1000 nM

Q: What about the IC50 [3] of the same compound?
A: ≤ 10 nM

Q: And the IC50 [4]?
A: > 1000 nM

Q: What does the source list for COC(=O)N[C@@H]1CC[C@@H](n2c(=O)n(C)c3cnc(Nc4ccn5nc(-c6cnn(C)c6)cc5n4)cc32)C1 [Example 35, Methyl ((1R,3R)-3-(3-methyl-6-((2-(1-methyl-1H-pyrazol-4-yl)pyrazolo[1,5-a]pyrimidin-5-yl)amino)-2-oxo-2,3-dihydro-1H-imidazo[4,5-c]pyridin-1-yl)cyclopentyl)carbamate]?
A: IC50 [1]: 10 to 100 nM; IC50 [2]: > 1000 nM; IC50 [3]: 10 to 100 nM; IC50 [4]: > 1000 nM

Q: How did the IC50 [1] turn out when COC(=O)N[C@@H]1CC[C@@H](n2c(=O)n(C)c3cnc(Nc4ccn5ncc(-c6cnn(C)c6)c5n4)cc32)C1 [Example 36, Methyl ((1R,3R)-3-(3-methyl-6-((3-(1-methyl-1H-pyrazol-4-yl)pyrazolo[1,5-a]pyrimidin-5-yl)amino)-2-oxo-2,3-dihydro-1H-imidazo[4,5-c]pyridin-1-yl)cyclopentyl)carbamate] was run?
A: ≤ 10 nM

Q: And the IC50 [2]?
A: > 1000 nM

Q: What about the IC50 [3] of the same compound?
A: 10 to 100 nM

Q: And the IC50 [4]?
A: > 1000 nM

Q: How did the IC50 [1] turn out when COC(=O)N[C@@H]1CC[C@@H](n2c(=O)n(C)c3cnc(Nc4cccc(OC5CCOCC5)n4)cc32)C1 [Example 37, Methyl ((1R,3R)-3-(3-methyl-2-oxo-6-((6-((tetrahydro-2H-pyran-4-yl)oxy)pyridin-2-yl)amino)-2,3-dihydro-1H-imidazo[4,5-c]pyridin-1-yl)cyclopentyl)carbamate] was run?
A: ≤ 10 nM

Q: What about the IC50 [2] of the same compound?
A: > 1000 nM

Q: And the IC50 [3]?
A: 10 to 100 nM

Q: And the IC50 [4]?
A: > 1000 nM

Q: With COC(=O)N[C@@H]1CC[C@@H](n2c(=O)n(C)c3cnc(Nc4ccc5ncc(-c6cncn6C)n5n4)cc32)C1 [Example 38, Methyl ((1R,3R)-3-(3-methyl-6-((3-(1-methyl-1H-imidazol-5-yl)imidazo[1,2-b]pyridazin-6-yl)amino)-2-oxo-2,3-dihydro-1H-imidazo[4,5-c]pyridin-1-yl)cyclopentyl)carbamate] as the compound, how does the IC50 [1] read?
A: ≤ 10 nM

Q: What about the IC50 [2] of the same compound?
A: > 1000 nM

Q: What about the IC50 [3] of the same compound?
A: 10 to 100 nM

Q: What about the IC50 [4] of the same compound?
A: > 1000 nM

Q: With COC(=O)Nc1cc(Nc2cc3c(cn2)n(C)c(=O)n3C2[C@H]3CN(C(=O)OC)C[C@@H]23)cc(-c2cnn(C)c2)c1 (stereo partly drawn) [Example 39, Methyl (1R,5S)-6-(6-((3-((methoxycarbonyl)amino)-5-(1-methyl-1H-pyrazol-4-yl)phenyl)amino)-3-methyl-2-oxo-2,3-dihydro-1H-imidazo[4,5-c]pyridin-1-yl)-3-azabicyclo[3.1.0]hexane-3-carboxylate] as the compound, how does the IC50 [1] read?
A: 100 to 500 nM

Q: And the IC50 [2]?
A: > 1000 nM

Q: What about the IC50 [3] of the same compound?
A: 100 to 500 nM

Q: What about the IC50 [4] of the same compound?
A: > 1000 nM

Q: Which IC50 [1] does the source give for COC(=O)Nc1cc(Nc2cc3c(cn2)n(C)c(=O)n3C2CC3CC2CN3C(C)=O)cc(-c2cnn(C)c2)c1 (centres unmarked) [Example 40, Methyl (3-((1-(2-acetyl-2-azabicyclo[2.2.1]heptan-5-yl)-3-methyl-2-oxo-2,3-dihydro-1H-imidazo[4,5-c]pyridin-6-yl)amino)-5-(1-methyl-1H-pyrazol-4-yl)phenyl)carbamate] here?
A: 10 to 100 nM

Q: And the IC50 [2]?
A: > 1000 nM

Q: What about the IC50 [3] of the same compound?
A: 10 to 100 nM

Q: What about the IC50 [4] of the same compound?
A: > 1000 nM
